Test results as given in patent publication US10829520B2, “Beta-hairpin peptidomimetics” (POLYPHOR AG, priority 2015, dated 2020).
Where a SMILES comes first, the peptide text is derived from it. Bridges are numbered along the chain shown (N, C = ends). Roman numbers before positions name the chains, in order. [ ]: non-standard residue; d: D form. Tle = CC(C)(C)[C@H](N)C(=O)O; dDab = NCC[C@@H](N)C(=O)O; dPip = O=C(O)[C@H]1CCCCN1; Nle = CCCC[C@H](N)C(=O)O; Orn = NCCC[C@H](N)C(=O)O; Dab = NCC[C@H](N)C(=O)O; Dap = NC[C@H](N)C(=O)O; Sar = CNCC(=O)O

Key:
Format in all cases: cell-based
[1] = system: Acinetobacter baumannii 872842; conditions: 872842
[2] = system: Acinetobacter baumannii DSM 30008; conditions: DSM 30008
How it was run: (§1)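 MIC in μg/mL; CLSI microdilution; cation-adjusted Mueller-Hinton II with Polysorbate 80 (0.002%); 10^6 CFU/mL; 35° C, 18-20 h.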

Escherichia coli 926415 = conditions: 926415
[3] = system: Escherichia coli ATCC 25922; conditions: ATCC 25922
How it was run: as §1

[4] = system: Klebsiella pneumoniae 968733; conditions: 968733
[5] = system: Klebsiella pneumoniae SSI #3010; conditions: SSI #3010
How it was run: as §1

[6] = system: Pseudomonas aeruginosa ATCC 27853; conditions: ATCC 27853
How it was run: as §1

[7] = system: human red blood cells (hRBC); assay: Hemolysis of human red blood cells; conditions: red cells of human, 1 h
How it was run: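 Percent hemolysis = OD540 of peptide-treated supernatant relative to the 2.5% Triton X-100 (100%) control, PBS containing 0.001% acetic acid defining 0%. Peptides tested at 100 μg/mL against 20% (v/v) washed human RBC, 1 h, 37 °C, 300 rpm.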

Row | Structure (SMILES) | Acinetobacter baumannii 872842 MIC [1] [µg/mL] | Acinetobacter baumannii DSM 30008 MIC [2] [µg/mL] | Escherichia coli 926415 MIC (Escherichia coli 926415) [µg/mL] | Escherichia coli ATCC 25922 MIC [3] [µg/mL] | Klebsiella pneumoniae 968733 MIC [4] [µg/mL] | Klebsiella pneumoniae SSI #3010 MIC [5] [µg/mL] | Pseudomonas aeruginosa ATCC 27853 MIC [6] [µg/mL] | Hemolysis at 100 μg/mL ([7]; 100 μg/mL) [%] | Hemolysis at 100 μg/mL [7]; 100 [%]
1 | CC(C)C[C@@H]1NC(=O)[C@@H](Cc2ccccc2)NC(=O)[C@H](CCN)NC(=O)[C@@H](NC(=O)[C@H](CCN)NC(=O)[C@@H](NC(=O)[C@H](CCN)NC(=O)[C@@H]2CSSC[C@H](NC(=O)[C@@H](N)Cc3c[nH]c4ccccc34)C(=O)N[C@@H](C(C)(C)C)C(=O)N[C@@H](C)C(=O)N[C@@H](CO)C(=O)N3CCCC[C@@H]3C(=O)N3CCC[C@H]3C(=O)N[C@@H](CC(C)C)C(=O)N[C@@H](CO)C(=O)N[C@@H](Cc3ccc(O)cc3)C(=O)N2)[C@@H](C)O)CCNC(=O)[C@H]([C@@H](C)O)NC(=O)[C@H](CCN)NC(=O)[C@H](CCN)NC1=O [Ex. 114] (H-WC[Tle]AS[dPip]PLSYC[Dab]T[Dab][Dab][Dab][dF]L[Dab][Dab]T; disulfide 2-11; lactam 15-C) | 0.125 | 0.5 | 0.0625 | 0.125 | 0.5 | 0.25 | 0.5 | 6 | 
2 | CCCC[C@@H]1NC(=O)[C@@H]2CCCN2C(=O)[C@H]2CCCN2C(=O)[C@H](CO)NC(=O)[C@H](C)NC(=O)[C@H](C(C)(C)C)NC(=O)[C@H](CCN)NC(=O)[C@H](Cc2c[nH]c3ccccc23)NC(=O)[C@H](CCN)NC(=O)[C@@H](CCN)NC(=O)[C@H](CC(=O)N[C@@H](CCN)C(=O)N[C@H]2CCNC(=O)[C@H]([C@@H](C)O)NC(=O)[C@H](CCN)NC(=O)[C@H](CCN)NC(=O)[C@H](CC(C)C)NC(=O)[C@@H](CC(C)C)NC(=O)[C@H](CCN)NC2=O)NC(=O)[C@H](CCN)NC(=O)[C@H](Cc2ccc(O)cc2)NC(=O)[C@H](CO)NC1=O [Ex. 71] (I: cyclo([Nle]SY[Dab]D[dDab][Dab]W[Dab][Tle]AS[dP]P) / II: [Dab][Dab][Dab][dL]L[Dab][Dab]T; amide I:5-II:N; lactam II:2-II:C) | 1 | 0.5 | 0.25 | 0.125 | 2 | 2 | 0.5 |  | <1
3 | CCCC[C@@H]1NC(=O)[C@@H]2CCCN2C(=O)[C@H]2CCCN2C(=O)[C@H](CO)NC(=O)[C@H](C)NC(=O)[C@H](C(C)(C)C)NC(=O)[C@@H](NC(=O)[C@H](Cc2ccccc2)NC(C)=O)CSSC[C@@H](C(=O)N[C@@H](CCCN)C(=O)N[C@@H](CCN)C(=O)N[C@H]2CCNC(=O)[C@H]([C@@H](C)O)NC(=O)[C@H](CCN)NC(=O)[C@H](CCN)NC(=O)[C@H](CC(C)C)NC(=O)[C@@H](Cc3ccccc3)NC(=O)[C@H](CCN)NC2=O)NC(=O)[C@H](Cc2ccc(O)cc2)NC(=O)[C@H](CO)NC1=O [Ex. 51] (Ac-FC[Tle]AS[dP]P[Nle]SYC[Orn][Dab][Dab][Dab][dF]L[Dab][Dab]T; disulfide 2-11; lactam 14-C) | 4 | 0.5 | 2 | 0.25 | 4 | 0.5 | 1 | <1 | 
4 | CC(=O)N[C@@H](Cc1c[nH]c2ccccc12)C(=O)N[C@@H](CCN)C(=O)N[C@H](C(=O)N[C@H]1CC(=O)NCC[C@@H](C(=O)N[C@@H](Cc2ccc(O)cc2)C(=O)N[C@@H](CCN)C(=O)N[C@H](C(=O)N[C@@H](CCN)C(=O)N[C@@H](CCN)C(=O)N[C@@H](CCN)C(=O)N[C@H]2CCNC(=O)[C@H]([C@@H](C)O)NC(=O)[C@H](CCN)NC(=O)[C@H](CCN)NC(=O)[C@H](CC(C)C)NC(=O)[C@@H](Cc3ccccc3)NC(=O)[C@H](CCN)NC2=O)[C@@H](C)O)NC(=O)[C@H](C(C)C)NC(=O)[C@@H]2CCCN2C(=O)[C@H]2CCCN2C(=O)[C@H](Cc2c[nH]cn2)NC1=O)C(C)(C)C [Ex. 167] (Ac-W[Dab][Tle]DH[dP]PV[Dab]Y[Dab]T[Dab][Dab][Dab][Dab][Dab][dF]L[Dab][Dab]T; lactam 4-9, 16-C) | 1 | 0.5 | 1 | 0.25 | 2 | 0.25 | 0.125 |  | <1
5 | CC[C@H](C)[C@@H]1NC(=O)[C@@H]2CCCN2C(=O)[C@H]2CCCN2C(=O)[C@H](Cc2ccc(O)cc2)NC(=O)[C@@H](NC(=O)[C@@H](NC(=O)[C@H](CCN)NC(=O)[C@@H](N)CC(C)C)C(C)C)CSSC[C@@H](C(=O)N[C@@H](Cc2ccc(O)cc2)C(=O)N[C@@H](CCN)C(=O)N(C)CC(=O)N[C@@H](CCN)C(=O)N[C@H](C(=O)N[C@@H](CCN)C(=O)N[C@H]2CCNC(=O)[C@H]([C@@H](C)O)NC(=O)[C@H](CCN)NC(=O)[C@H](CCN)NC(=O)[C@H](CC(C)C)NC(=O)[C@@H](CC(C)C)NC(=O)[C@H](CCN)NC2=O)[C@@H](C)O)NC1=O [Ex. 170] (H-L[Dab]VCY[dP]PICY[Dab][Sar][Dab]T[Dab][Dab][Dab][dL]L[Dab][Dab]T; disulfide 4-9; lactam 16-C) | 0.125 | 1 | 0.25 | 0.5 | 0.5 | 1 | 0.5 | 1 | 
6 | CCCC[C@@H]1NC(=O)[C@@H]2CCCN2C(=O)[C@H]2CCCN2C(=O)[C@H](CO)NC(=O)[C@H](C)NC(=O)[C@H](C(C)(C)C)NC(=O)[C@H](CCN)NC(=O)[C@H](Cc2c[nH]c3ccccc23)NC(=O)[C@@H](N)CCC(=O)NCC[C@@H](C(=O)N[C@H](CCN)C(=O)N[C@H]2CCNC(=O)[C@H]([C@@H](C)O)NC(=O)[C@H](CCN)NC(=O)[C@H](CCN)NC(=O)[C@H](CC(C)C)NC(=O)[C@@H](Cc3ccccc3)NC(=O)[C@H](CCN)NC2=O)NC(=O)[C@H](CCCN)NC(=O)[C@H](CCN)NC(=O)[C@H](Cc2ccc(O)cc2)NC(=O)[C@H](CO)NC1=O [Ex. 198] (H-EW[Dab][Tle]AS[dP]P[Nle]SY[Dab][Orn][Dab][dDab][Dab][Dab][dF]L[Dab][Dab]T; lactam 1-14, 16-C) | 1 | 0.25 | 0.5 | 0.0625 | 1 | 0.125 | 0.5 |  | 1
7 | CCCC[C@@H]1NC(=O)[C@@H]2CCCN2C(=O)[C@H]2CCCN2C(=O)[C@H](CO)NC(=O)[C@H](C)NC(=O)[C@H](C(C)(C)C)NC(=O)[C@@H](NC(=O)[C@@H](N)Cc2c[nH]c3ccccc23)CSSC[C@@H](C(=O)N[C@@H](CCN)C(=O)N[C@H](C(=O)N[C@@H](CN)C(=O)N[C@H]2CCNC(=O)[C@H]([C@@H](C)O)NC(=O)[C@H](CCN)NC(=O)[C@H](CCN)NC(=O)[C@H](CC(C)C)NC(=O)[C@@H](Cc3ccccc3)NC(=O)[C@H](CCN)NC2=O)[C@@H](C)O)NC(=O)[C@H](Cc2ccc(O)cc2)NC(=O)[C@H](CO)NC1=O [Ex. 16] (H-WC[Tle]AS[dP]P[Nle]SYC[Dab]T[Dap][Dab][Dab][dF]L[Dab][Dab]T; disulfide 2-11; lactam 15-C) | 0.25 | 0.25 | 0.125 | 0.5 | 0.375 | 0.25 | 0.25 | 3 | 
8 | CC(C)C[C@@H]1NC(=O)[C@@H](CC(C)C)NC(=O)[C@H](CCN)NC(=O)[C@@H](NC(=O)[C@H](CCN)NC(=O)[C@H](CCN)NC(=O)[C@@H](CCN)NC(=O)[C@H](CCCN)NC(=O)[C@@H]2CSSC[C@H](NC(=O)[C@@H](N)Cc3c[nH]c4ccccc34)C(=O)N[C@@H](C(C)C)C(=O)N[C@@H](CO)C(=O)N[C@@H](CO)C(=O)N3CCC[C@@H]3C(=O)N3CCC[C@H]3C(=O)N[C@@H](C(C)C)C(=O)N[C@@H](CN)C(=O)N[C@@H](Cc3ccc(O)cc3)C(=O)N2)CCNC(=O)[C@H]([C@@H](C)O)NC(=O)[C@H](CCN)NC(=O)[C@H](CCN)NC1=O [Ex. 148] (H-WCVSS[dP]PV[Dap]YC[Orn][dDab][Dab][Dab][Dab][Dab][dL]L[Dab][Dab]T; disulfide 2-11; lactam 16-C) | 0.25 | 0.5 | 0.5 | 0.25 | 4 | 1 | 0.125 | <1 | 
